Measured values: article PMC12396409, “Screening and hit evaluation of a microbial metabolite library against the pathogenic Plasmodium falciparum and Toxoplasma gondii parasites” (International Journal for Parasitology: Drugs and Drug …, 2025)
Like-named read-outs stand apart in the source and are kept apart here. *1 amine or outer side, *2 acyl side, *3 side chain or, on linkers, in order; H or OH if unused. Where a SMILES comes first, the peptide text is derived from it. Bridges are numbered along the chain shown (N, C = ends). [ ]: non-standard residue; d: D form. hTyr(3S-OH,4S-OH,3'-OSO3H) = N[C@H](C(=O)O)[C@H](O)[C@@H](O)c1ccc(O)c(OS(=O)(=O)O)c1; Orn(4R-OH,5R-OH) = O=C([C@H](C[C@@H](O)[C@@H](O)N[*:3])N[*:1])[*:2]; Pro(3S-OH,4S-Me) = C[C@H]1CN[C@H](C(=O)O)[C@H]1O; Gln(3R-OH) = NC(=O)C[C@@H](O)[C@H](N)C(=O)O; Hyp = O=C(O)[C@@H]1C[C@@H](O)CN1

Key:
[1] = tested on: T. gondii RH strain (RH-Tub-eYFP) tachyzoites; assay: microbe, parasite or virus in culture; assay type: cell-based, Toxoplasma gondii; conditions: for percent parasite growth at 2 µg/mL: Toxoplasma gondii, parasite screen 2 μg/mL
[2] = tested on: P. falciparum 3D7 parasites; assay: P. falciparum growth inhibition assay, 1-cycle (72 h treatment), SYBR DNA staining (library screen at 2 μg/mL and dose-response); assay type: cell-based, Plasmodium falciparum; conditions: for 1) Growth (%) at 72 h: 2 μg/mL; for activity at 2 µg/mL: Plasmodium falciparum, 3D7, parasite screen 2 μg/mL
[3] = tested on: P. falciparum 3D7 parasites; assay: P. falciparum growth inhibition assay, 2-cycle (120 h treatment), delayed-death screen and dose-response; assay type: cell-based, Plasmodium falciparum; conditions: for 2) Growth (%) at 120 h / 3) Fold change (72 h/120 h): 2 μg/mL; for 3) Fold change (72 h/120 h): growth at 72 h / growth at 120 h; for activity at 2 µg/mL: Plasmodium falciparum, 3D7, parasite screen 2 μg/mL
[4] = T. gondii, 72 h, 2 μg/mL, values are growth (% of control)
[5] = library screen at 2 μg/mL, 72 h, % growth, replicate 1
[6] = library screen at 2 μg/mL, 72 h, % growth, replicate 2
[7] = library screen at 2 μg/mL, 120 h, % growth, replicate 1
[8] = library screen at 2 μg/mL, 120 h, % growth, replicate 2
[9] = T. gondii RH, 72 h, library screen at 2 μg/mL, % growth, replicate 1
[10] = T. gondii RH, 72 h, library screen at 2 μg/mL, % growth, replicate 2
[11] = P. falciparum 3D7, 72 h, library screen at 2 μg/mL, % growth, replicate 1
[12] = P. falciparum 3D7, 72 h, library screen at 2 μg/mL, % growth, replicate 2
[13] = P. falciparum 3D7, 120 h, library screen at 2 μg/mL, % growth, replicate 1
[14] = P. falciparum 3D7, 120 h, library screen at 2 μg/mL, % growth, replicate 2

`CCCC(=O)O[C@H]1[C@H](C)O[C@@H](O[C@H]2[C@H](N(C)C)[C@@H](O)[C@H](O[C@H]3[C@@H](CC=O)C[C@@H](C)[C@@H](O)/C=C/C=C/C[C@@H](C)OC(=O)C[C@@H](OC(C)=O)[C@@H]3OC)O[C@@H]2C)C[C@@]1(C)O` [Leucomycin A4] was tested, and the Mean ([1]; T. gondii, 72 h, 2 μg/mL, mean of both replicates, growth (% of control)) was 23.43, the “Replicate 1” value [1, 4] was 19.43 and the “Replicate 2” value [1, 4] was 27.43. For the same compound, the “1) Growth (%) at 72 h” value ([2]; P. falciparum, 72 h) was 46.88%, the “2) Growth (%) at 120 h” value ([3]; P. falciparum, 120 h) was 1.51% and the “3) Fold change (72 h/120 h)” value ([3]; P. falciparum) was 31.0.
`O=C1N[C@@H](Cc2c[nH]c3ccccc23)C(=O)N[C@H]1Cc1c[nH]c2ccccc12` [Cyclo(L-Trp-L-Trp)] showed a Tg_72h_%Growth_Rep1 ([1]; T. gondii, 72 h, screen at 2 μg/mL, replicate 1) of 161.12%, a Tg_72h_%Growth_Rep2 ([1]; T. gondii, 72 h, screen at 2 μg/mL, replicate 2) of 99.00% and a Pf_72h_%Growth_Rep1 ([2]; P. falciparum, 72 h, screen at 2 μg/mL, replicate 1) of 85.34%. It also gave a Pf_72h_%Growth_Rep2 ([2]; P. falciparum, 72 h, screen at 2 μg/mL, replicate 2) of 84.68%, a Pf_120h_%Growth_Rep1 ([3]; P. falciparum, 120 h, screen at 2 μg/mL, replicate 1) of 96.17% and a Pf_120h_%Growth_Rep2 ([3]; P. falciparum, 120 h, screen at 2 μg/mL, replicate 2) of 91.69%.
`C[C@@H](O)[C@@H]1NC(=O)[C@@H](N)C[C@@H](O)[C@@H](O)NC(=O)[C@@H]2[C@@H](O)[C@@H](C)CN2C(=O)[C@H]([C@H](O)CC(N)=O)NC(=O)[C@H]([C@H](O)[C@@H](O)c2ccc(O)c(OS(=O)(=O)O)c2)NC(=O)[C@@H]2C[C@@H](O)CN2C1=O` [FR 179642] (H-[Orn(4R-OH,5R-OH)]T[Hyp][hTyr(3S-OH,4S-OH,3'-OSO3H)][Gln(3R-OH)][Pro(3S-OH,4S-Me)]; lactam 1-C) was tested, and the Tg_72h_%Growth_Rep1 [1, 5] was 133.49%, the Tg_72h_%Growth_Rep2 [1, 6] was 86.61% and the Pf_72h_%Growth_Rep1 [2, 5] was 86.67%. The Pf_72h_%Growth_Rep2 [2, 6] was 86.11%, the Pf_120h_%Growth_Rep1 [3, 7] was 98.57% and the Pf_120h_%Growth_Rep2 [3, 8] was 95.35%.
`CCCN1C[C@H](C)[C@@H](O)[C@](C)(O)[C@@H](CC)OC(=O)[C@H](C)[C@@H](O[C@H]2C[C@@](C)(OC)[C@@H](O)[C@H](C)O2)[C@H](C)[C@@H](O[C@@H]2O[C@H](C)C[C@H](N(C)C)[C@H]2O)[C@](C)(O)C[C@H]1C` [Gamithromycin, reference compound] was tested, and the Tg_72h_%Growth_Rep1 [1, 5] was 33.80%, the Tg_72h_%Growth_Rep2 [1, 6] was 38.81% and the “1) Growth (%) at 72 h” value ([2]; P. falciparum, 72 h) was 58.53%. For the same compound, the Pf_72h_%Growth_Rep1 [2, 5] was 42.98%, the Pf_72h_%Growth_Rep2 [2, 6] was 74.08% and the “2) Growth (%) at 120 h” value ([3]; P. falciparum, 120 h) was 15.46%. For the same compound, the “3) Fold change (72 h/120 h)” value ([3]; P. falciparum) was 3.8, the Pf_120h_%Growth_Rep1 [3, 7] was 12.20% and the Pf_120h_%Growth_Rep2 [3, 8] was 18.72%.
With `O=c1cc(O)c2nccc3c4ccccc4n1c23` [BIA-H1963] the Tg_72h_%Growth_Rep1 [1, 9] was 127.63%, the Tg_72h_%Growth_Rep2 [1, 10] was 85.33% and the Pf_72h_%Growth_Rep1 [2, 11] was 88.88%. For the same compound, the Pf_72h_%Growth_Rep2 [2, 12] was 124.49%, the Pf_120h_%Growth_Rep1 [3, 13] was 105.89% and the Pf_120h_%Growth_Rep2 [3, 14] was 107.63%.
`O=C1NCc2nc3ccccc3c(=O)n2-c2ccccc21` [Sclerotigenin] was tested, and the percent parasite growth at 2 µg/mL ([1]; 72 h, T. gondii, 72 h, % growth, replicate 1, read-out: Tg_72h_%Growth_Rep1) was 82%, the percent parasite growth at 2 µg/mL ([1]; 72 h, T. gondii, 72 h, % growth, replicate 2, read-out: Tg_72h_%Growth_Rep2) was 103% and the activity at 2 µg/mL ([2]; P. falciparum, 72 h, % growth, replicate 1, read-out: Pf_72h_%Growth_Rep1) was 90.7%. It also gave an activity at 2 µg/mL ([2]; P. falciparum, 72 h, % growth, replicate 2, read-out: Pf_72h_%Growth_Rep2) of 89.5%, an activity at 2 µg/mL ([3]; P. falciparum, 120 h, % growth, replicate 1, read-out: Pf_120h_%Growth_Rep1) of 169% and an activity at 2 µg/mL ([3]; P. falciparum, 120 h, % growth, replicate 2, read-out: Pf_120h_%Growth_Rep2) of 96.5%.
In the case of Aflatoxin G2, the Tg_72h_%Growth_Rep1 [1] is reported as 134.03%, the Tg_72h_%Growth_Rep2 [1] is reported as 98.49% and the Pf_72h_%Growth_Rep1 [2] is reported as 83.21%. The Pf_72h_%Growth_Rep2 [2] was 86.33%, the Pf_120h_%Growth_Rep1 [3] was 98.15% and the Pf_120h_%Growth_Rep2 [3] was 97.03%.
Work on `O=c1cc(CO)occ1O` [BIA-K1696] yielded a Tg_72h_%Growth_Rep1 [1, 9] of 111.73%, a Tg_72h_%Growth_Rep2 [1, 10] of 90.68% and a Pf_72h_%Growth_Rep1 [2, 11] of 83.60%. For the same compound, the Pf_72h_%Growth_Rep2 [2, 12] was 96.29%, the Pf_120h_%Growth_Rep1 [3, 13] was 76.01% and the Pf_120h_%Growth_Rep2 [3, 14] was 110.07%.
